Experimental findings from patent US10730874B2 (Shire Human Genetic Therapies, Inc., priority 2018, dated 2020) are described below.

Bounds are passed on as bounds.

For this experiment, the target named is human activated kallikrein enzyme (plasma kallikrein) (Homo sapiens (Human), UniProt P03952). The experiment is described as follows: Inhibition of human activated plasma kallikrein, fluorogenic peptide substrate assay, 500 pM enzyme format. Conditions: 500 pM activated kallikrein enzyme, 300 uM Pro-Phe-Arg-7-amido-4-methylcoumarin substrate, 30 min preincubation, 10 min at RT; read-out: Primary Dose Response Assay: Average EC50. Type of experiment: biochemical. How it is done: Example compounds were evaluated for inhibition of the human activated kallikrein enzyme in two formats of an assay employing a fluorogenic peptide substrate. In one assay format, the concentrations of reagents were as follows: 20 mM Tris pH 7.5, 1 mM EDTA, 150 mM sodium chloride, 0.1% PEG-400, 0.1% Triton X-100, 500 pM activated kallikrein enzyme, 300 uM Pro-Phe-Arg-7-amido-4-methylcoumarin substrate. Prior to reaction initiation with substrate, enzyme and inhibitors were preincubated for 30 min at RT. After initiation with substrate, reactions were incubated for 10 min at RT and fluorescence emission at 460 nm from 380 nm excitation measured with a microplate reader. In another assay format, the concentrations of reagents were as follows: 20 mM Tris pH 7.5, 1 mM EDTA, 150 mM sodium chloride, 0.1% PEG-400, 0.1% Triton X-100, 5 pM activated kallikrein enzyme, 300 uM Pro-Phe-Arg-7-amido-4-methylcoumarin substrate. Prior to reaction initiation with substrate, enzyme and inhibitors were preincubated for 30 min at RT. After initiation with substrate, reactions were incubated for 18 h at RT and fluorescence emission at 460 nm from 380 nm excitation measured with a microplate reader.
human activated kallikrein enzyme (plasma kallikrein), sequence (P03952 391-638): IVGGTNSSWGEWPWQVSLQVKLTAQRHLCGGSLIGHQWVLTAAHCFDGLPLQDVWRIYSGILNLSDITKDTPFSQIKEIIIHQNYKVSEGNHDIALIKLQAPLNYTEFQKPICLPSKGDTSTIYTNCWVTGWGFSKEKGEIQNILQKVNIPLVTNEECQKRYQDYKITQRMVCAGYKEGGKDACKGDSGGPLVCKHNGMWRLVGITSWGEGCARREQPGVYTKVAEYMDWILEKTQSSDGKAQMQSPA
human activated kallikrein enzyme (plasma kallikrein), sequence (P03952 20-390 partner): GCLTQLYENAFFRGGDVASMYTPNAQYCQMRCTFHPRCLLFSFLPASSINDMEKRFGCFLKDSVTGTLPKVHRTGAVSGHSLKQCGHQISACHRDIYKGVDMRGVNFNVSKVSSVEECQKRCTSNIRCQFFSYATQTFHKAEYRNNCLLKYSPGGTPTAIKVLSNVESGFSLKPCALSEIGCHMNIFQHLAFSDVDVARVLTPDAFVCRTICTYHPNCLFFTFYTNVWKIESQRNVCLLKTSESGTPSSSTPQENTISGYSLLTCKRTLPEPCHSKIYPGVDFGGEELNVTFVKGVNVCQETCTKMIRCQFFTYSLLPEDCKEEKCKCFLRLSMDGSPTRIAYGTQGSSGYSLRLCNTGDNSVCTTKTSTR
Consider `NC(=O)c1cc(Cn2cc(C(=O)NCc3ncn4ccc(Cl)c(F)c34)nn2)cc2cc(C3CC3)cnc12` [Example I-275, 6-((4-(((7-chloro-8-fluoroimidazo[1,5-a]pyridin-1-yl)methyl)carbamoyl)-1H-1,2,3-triazol-1-yl)methyl)-3-cyclopropylquinoline-8-carboxamide], for which the EC50 lay in the range of 10 to 100 nM. Under `N#Cc1cc(C2CC2)cn2cc(Cn3cc(C(=O)NCc4ncn5ccc(Cl)cc45)nn3)nc12` [Example I-112, N-((7-chloroimidazo[1,5-a]pyridin-1-yl)methyl)-1-((8-cyano-6-cyclopropylimidazo[1,2-a]pyridin-2-yl)methyl)-1H-1,2,3-triazole-4-carboxamide] stands less than 1 nM; under `Cc1ccc2nc(Cn3cc(C(=O)NCc4ncn5ccc(Cl)cc45)cn3)cn2c1` [Example I-64, N-((7-chloroimidazo[1,5-a]pyridin-1-yl)methyl)-1-((6-methylimidazo[1,2-a]pyridin-2-yl)methyl)-1H-pyrazole-4-carboxamide], 1 to 10 nM; under `O=C(NCc1ncn2ccc(Cl)c(F)c12)c1cn(Cc2cn3cc(Cl)cc(C4COC4)c3n2)nn1` [Example I-187, 1-((6-chloro-8-(oxetan-3-yl)imidazo[1,2-a]pyridin-2-yl)methyl)-N-((7-chloro-8-fluoroimidazo[1,5-a]pyridin-1-yl)methyl)-1H-1,2,3-triazole-4-carboxamide], less than 1 nM. For `O=C(NCc1ncn2ccc(Cl)cc12)c1cn(Cc2cn3nc(C4CC4)ccc3n2)nn1` [Example I-111, N-((7-chloroimidazo[1,5-a]pyridin-1-yl)methyl)-1-((6-cyclopropylimidazo[1,2-b]pyridazin-2-yl)methyl)-1H-1,2,3-triazole-4-carboxamide], the EC50 was less than 1 nM.

Take `O=C(NCc1ncn2ccc(Cl)cc12)c1nnc(Cc2cn3nc(C4CC4)ccc3n2)o1` [Example I-138, N-((7-chloroimidazo[1,5-a]pyridin-1-yl)methyl)-5-((6-cyclopropylimidazo[1,2-b]pyridazin-2-yl)methyl)-1,3,4-oxadiazole-2-carboxamide]: the EC50 was less than 1 nM.

For the molecule `CCOC(=O)C(C)(C)Cc1cc(C2CC2)cn2cc(Cn3cc(C(=O)NCc4ncn5ccc(Cl)cc45)nn3)nc12` [Example I-168, ethyl 3-(2-((4-(((7-chloroimidazo[1,5-a]pyridin-1-yl)methyl)carbamoyl)-1H-1,2,3-triazol-1-yl)methyl)-6-cyclopropylimidazo[1,2-a]pyridin-8-yl)-2,2-dimethylpropanoate], the EC50 was less than 1 nM.

For `CC(F)c1cc(C2CC2)cn2cc(Cn3cc(C(=O)NCc4ncn5ccc(Cl)c(F)c45)nn3)nc12` (centres unmarked) [Example I-213, N-((7-chloro-8-fluoroimidazo[1,5-a]pyridin-1-yl)methyl)-1-((6-cyclopropyl-8-(1-fluoroethyl)imidazo[1,2-a]pyridin-2-yl)methyl)-1H-1,2,3-triazole-4-carboxamide], the EC50 was less than 1 nM. Under `O=C(NCc1ncn2ccc(Cl)c(F)c12)c1cn(Cc2cn3cc(C4CC4)cc(N4CC5(COC5)C4)c3n2)nn1` [Example I-250, N-((7-chloro-8-fluoroimidazo[1,5-a]pyridin-1-yl)methyl)-1-((6-cyclopropyl-8-(2-oxa-6-azaspiro[3.3]heptan-6-yl)imidazo[1,2-a]pyridin-2-yl)methyl)-1H-1,2,3-triazole-4-carboxamide] stands less than 1 nM. For the molecule `O=C(O)COc1cc(C2CC2)cn2cc(Cn3cc(C(=O)NCc4ncn5ccc(Cl)c(F)c45)nn3)nc12` [Example I-208, 2-((2-((4-(((7-chloro-8-fluoroimidazo[1,5-a]pyridin-1-yl)methyl)carbamoyl)-1H-1,2,3-triazol-1-yl)methyl)-6-cyclopropylimidazo[1,2-a]pyridin-8-yl)oxy)acetic acid], the EC50 is less than 1 nM.

Consider `N#CCCc1cc(C2CC2)cn2cc(Cn3cc(C(=O)NCc4ncn5ccc(Cl)cc45)nn3)nc12` [Example I-184, N-((7-chloroimidazo[1,5-a]pyridin-1-yl)methyl)-1-((8-(2-cyanoethyl)-6-cyclopropylimidazo[1,2-a]pyridin-2-yl)methyl)-1H-1,2,3-triazole-4-carboxamide], for which the EC50 is less than 1 nM. Consider `O=C(NCc1ncn2ccc(Cl)c(F)c12)c1cc(C(=O)O)n(Cc2cn3cc(C4CC4)ccc3n2)c1` [Example I-270b, 4-(((7-chloro-8-fluoroimidazo[1,5-a]pyridin-1-yl)methyl)carbamoyl)-1-((6-cyclopropylimidazo[1,2-a]pyridin-2-yl)methyl)-1H-pyrrole-2-carboxylic acid], for which the EC50 was less than 1 nM. Turning to `NCCOCc1cc(C2CC2)cn2cc(Cn3cc(C(=O)NCc4ncn5ccc(Cl)c(F)c45)nn3)nc12` [Example I-302, 1-((8-((2-aminoethoxy)methyl)-6-cyclopropylimidazo[1,2-a]pyridin-2-yl)methyl)-N-((7-chloro-8-fluoroimidazo[1,5-a]pyridin-1-yl)methyl)-1H-1,2,3-triazole-4-carboxamide], the EC50 is less than 1 nM.

Consider `O=C(NCc1ncn2ccc(Cl)cc12)c1cnn(Cc2cn3ccccc3n2)c1` [Example I-69, N-((7-chloroimidazo[1,5-a]pyridin-1-yl)methyl)-1-(imidazo[1,2-a]pyridin-2-ylmethyl)-1H-pyrazole-4-carboxamide], for which the EC50 is 100 to 2000 nM. For the molecule `O=C(NCc1ncn2ccc(Br)cc12)c1cnn(Cc2cc3cc(C4CC4)ccn3n2)c1` [Example I-56, N-((7-bromoimidazo[1,5-a]pyridin-1-yl)methyl)-1-((5-cyclopropylpyrazolo[1,5-a]pyridin-2-yl)methyl)-1H-pyrazole-4-carboxamide], the EC50 lay within 1 to 10 nM. For `CC(C)(Cc1cc(C2CC2)cn2cc(Cn3cc(C(=O)NCc4ncn5ccc(Cl)c(F)c45)nn3)nc12)C(=O)O` [Example I-206, 3-(2-((4-(((7-chloro-8-fluoroimidazo[1,5-a]pyridin-1-yl)methyl)carbamoyl)-1H-1,2,3-triazol-1-yl)methyl)-6-cyclopropylimidazo[1,2-a]pyridin-8-yl)-2,2-dimethylpropanoic acid], the EC50 is less than 1 nM.

Take `O=C(NCc1ncn2ccc(Cl)c(F)c12)c1cn(Cc2cn3cc(Cl)c(Cl)cc3n2)nn1` [Example I-188, N-((7-chloro-8-fluoroimidazo[1,5-a]pyridin-1-yl)methyl)-1-((6,7-dichloroimidazo[1,2-a]pyridin-2-yl)methyl)-1H-1,2,3-triazole-4-carboxamide]: the EC50 was in the range of 1 to 10 nM. The figure for `O=C(NCc1ncn2ccc(Cl)cc12)c1cc(Cc2cn3cc(C4CC4)ccc3n2)on1` [Example I-176, N-((7-chloroimidazo[1,5-a]pyridin-1-yl)methyl)-5-((6-cyclopropylimidazo[1,2-a]pyridin-2-yl)methyl)isoxazole-3-carboxamide] is 1 to 10 nM; for `O=C(NCc1ncn2ccc(Cl)c(F)c12)c1cn(Cc2cc3cc(C4CC4)cnc3s2)nn1` [Example I-189, N-((7-chloro-8-fluoroimidazo[1,5-a]pyridin-1-yl)methyl)-1-((5-cyclopropylthieno[2,3-b]pyridin-2-yl)methyl)-1H-1,2,3-triazole-4-carboxamide] it is less than 1 nM; for `N#Cc1cc(C2CC2)cn2cc(Cc3nnc(C(=O)NCc4ncn5ccc(Cl)cc45)o3)nc12` [Example I-128, N-((7-chloroimidazo[1,5-a]pyridin-1-yl)methyl)-5-((8-cyano-6-cyclopropylimidazo[1,2-a]pyridin-2-yl)methyl)-1,3,4-oxadiazole-2-carboxamide] it is less than 1 nM.
